Results reported in US20200155632A1, “COMPOSITION FOR TREATING AND PREVENTING MALE SEXUAL DISORDERS” (KOLINPHARMA S.P.A., priority 2017, published 2020).

What was measured:
[1] = system: cGMP in ECV-304 cells (human vascular endothelium cells); assay: cGMP levels by ELISA in ECV-304 cells after treatment with Menix active ingredients and associations; format: cell-based; parameters: Average % deviation from control (cGMP levels): concentration or dose not given beside the values; conditions: for pM (cGMP), levels of expression of cGMP: 48 hours of treatment, average of n=3 biological replicates, concentrations of Table 3, control 82.1; for Average % deviation from control (cGMP levels): 48 hours, vs non-treated cells
Experimental: For this experiment, human vascular endothelium cells were selected (ECV-304). […] At this point, the cells were treated with trypsin and EDTA and were re-examined in appropriate culture flasks.
The cGMP levels were determined by ELISA assay, following the operating instructions given in the protocol supplied by the manufacturer (cGMP ELISA KIT—STA 505-5, Cloud Clone Corp), running the assay in the acetylated embodiment to increase the sensitivity thereof.
For the experiment, the ECV-304 cells were sowed in MW-6 and treated for 48 hours with the active ingredients of Menix and associations thereof. After the 48 hours had elapsed, the supernatants were collected and frozen at −80° C. until use. The untreated cells were used as a control.
The base levels of cGMP were determined by ELISA assay, following instructions supplied by the manufacturer (STA 505-5 Cell Biolabs Inc).
The results, expressed in terms of concentration (pM) of cGMP average±standard deviation (n=3 biological replicates), are set out in FIG. 3 and Table 4.

[2] = Solubility tests of the active ingredients of Menix; format: physicochemical; conditions: tested in order: culture medium, water, DMSO, organic solvents
From the text: Before being subjected to the cell assays, the active ingredients of Menix have been subjected to solubility tests to define the best solubilization agent for each of the assays.

aged rats = conditions: dissolved 1% in water; cited from earlier work
[3] = system: rats affected by type-1 diabetes; conditions: 400 mg/kg/daily; cited from earlier work
[4] = oral administration; cited from earlier work
[5] = system: rats with acute arteriogenic erectile dysfunction; conditions: 2% p/v in water for three weeks; cited from earlier work
[6] = system: subjects suffering from mild erectile dysfunction; conditions: 1.5 g daily for a month, oral, 24 subjects; cited from earlier work
diabetic rat = conditions: cited from earlier work
[7] = system: subjects suffering from erectile dysfunction (from mild to moderate); conditions: 600 mg/daily, 26 subjects; cited from earlier work
ICAM-1 and P-selectine = conditions: 2 g daily, adjuvant to sildenafil twice weekly; cited from earlier work

SMILES	pM (cGMP), levels of expression of cGMP [1] [pM]	Average % deviation from control (cGMP levels) [1] [%]	Solvent in which the active ingredient has been solubilized [2]	also measured
NCCS(=O)(=O)O [TAURINE, 2-aminoethanesulphonic acid]	137	66.87	Culture medium	Levels of NOS and NO in the rat's penis (aged rats): increases levels of both NOS and NO; Secretion of androgens, testosterone (aged rats): increases the secretion of androgens and in particular of testosterone; Sperm quality (count, vitality, motility) (aged rats): improves sperm quality; Levels of cGMP and eNOS in the corpus cavernosum [3]: increased the levels of both cGMP and eNOS; Pressure inside the corpus cavernosum [3]: increase in pressure inside the corpus cavernosum
NCC(=O)[O-].NCC(=O)[O-].[Zn+2] [Zn, zinc bisglycinate]	90	9.62		
NC(=O)NCCCC(N)C(=O)O (centres unmarked) [CITRULLINE, 2-amino-5-(carbamoylamino)pentanoic acid]	140	70.52	Culture medium	Blood levels of L-arginine compared with basic values [4]: increase in the blood levels of L-arginine; Erectile function [5]: significant improvement in erectile function; NO plasmatic levels [5]: increasing NO plasmatic levels; Erectile function on EHS and IIEF-5 [6]: increase in erectile function
O=C(O)CCCCC1CCSS1 (racemic) [α-LIPOIC ACID, alpha-lipoic acid]	60	−26.92		Levels of endothelial NOS and neuron NOS (diabetic rat; 65 mg/kg/daily for 15 days): increase in levels of endothelial NOS and of neuron NOS; Corpus cavernosum dysfunctions (diabetic rat; 300 mg/kg/daily for a month): prevented and ameliorated corpus cavernosum dysfunctions; Indicators connected to erectile dysfunction (IIEF-5) [7]: significant improvement
CC(=O)O[C@H](CC(=O)[O-])C[N+](C)(C)C [N-ACETYL-L-CARNITINE, (R)-3-acetyloxy-4-trimethylammonio-butanoate]	22	−73.20	Water	
CCC(=O)O[C@H](CC(=O)[O-])C[N+](C)(C)C [propionyl-L-carnitine]				Endogenous levels of endothelial dysfunction markers such as ICAM-1 and P-selectine (ICAM-1 and P-selectine): significant reduction
